According to PubChem BioAssay (NCI):
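How tested: cells in 96-well plates exposed to compound for 48 hours at five concentrations. Abbreviation: GI50, concentration required for 50% inhibition of growth. TGI: total growth inhibition.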

These compounds were tested on NCI-H522 lung (assay: growth of human tumour cells (NCI), 48 h).

| SMILES | TGI | GI50 |
| --- | --- | --- |
| O=C(N/C(=C\c1ccc(/C=C(\NC(=O)c2ccccc2)c2nc3cc([N+](=O)[O-])ccc3[nH]2)cc1)c1nc2cc([N+](=O)[O-])ccc2[nH]1)c1ccccc1 | 50 µM |  |
| COc1ccc(C(=O)Cn2c(C(=O)c3ccccc3)nc(-c3ccc(OC)cc3)c2-c2ccc(OC)cc2)cc1 | > 100 µM | > 100 µM |
| O=C1c2ccccc2C2C1N2C(=O)C(F)(F)F (configuration not stated) | > 100 µM |  |
| N#CCCN(CCC#N)c1ccc(/C=C2\N=C(c3cc([N+](=O)[O-])ccc3Cl)OC2=O)cc1 | 27.6 µM |  |
| CC1=C(C(=O)Nc2ccc(Cl)c(Cl)c2)C(c2cccc(Oc3ccccc3)c2)NC(=S)N1 (configuration not stated) | 21.8 µM | 11.7 µM |
| CN(C)CC[N+]1=Nc2cccc3cccc(c23)N1 | > 95.7 µM |  |
| COc1ccc2c(C3=C(c4cn(C)c5ccccc45)C(=O)NC3=O)cn(C)c2c1 | 0.902 µM | 0.0742 µM |
| N#CC(c1ccc(Cl)cc1)c1cccc(C(C#N)c2ccc(Cl)cc2)n1 (configuration not stated) | > 100 µM |  |
| CCCCCN(CCCCC)CCCNc1c2c(nc3ccc(Cl)cc13)CCCC2 | 3.86 µM | 1.74 µM |
| O=C1/C(=C/c2ccccc2)CN(C(=O)C(Cl)(Cl)Cl)C/C1=C\c1ccccc1 | 4.08 µM |  |
| Cn1c2ccccc2c2c(Nc3ccccc3)c3ccccc3nc21 | > 100 µM | 45.6 µM |
| Cc1ccc(NC2=C(Cl)C(=O)N(Cc3ccccc3)C2=O)cc1O | > 100 µM | 41.2 µM |

These compounds were tested on SK-MEL-28 melanoma (assay: growth of human tumour cells (NCI), 48 h).

| SMILES | TGI | GI50 |
| --- | --- | --- |
| CCN(CCO)CC1CCCC2CCCCC21 (configuration not stated) | > 100 µM |  |
| NNC(=O)Nc1cccnc1 | > 100 µM |  |
| COc1ccc(-c2nc3sccn3c2/C(N)=N/C(=N)N)cc1OC | > 100 µM | 32.5 µM |
| CCCCCCCCCCCOc1ccc(C(=O)C(=O)c2ccc(OCCCCCCCCCCC)c(OCCCCCCCCCCC)c2)cc1OCCCCCCCCCCC | > 100 µM |  |
| CCCCC(=O)OCC(=O)[C@]1(O)Cc2c(O)c3c(c(O)c2[C@@H](OC2CC(NC(=O)C(F)(F)F)C(O)C(C)O2)C1)C(=O)c1c(OC)cccc1C3=O (some centres not stated) | 12.2 µM |  |
| O=C(O)CCc1coc2ccc(O)cc12 | > 100 µM |  |
| Clc1cc2nsnc2c(Cl)n1 | 44.4 µM |  |
| N#CC1C(C#N)C2(c3ccccc3)C(c3ccccc3)=NN(c3ccccc3)CC12 (configuration not stated) | > 100 µM |  |
| C=C(CN1CCN(c2ccc(Cl)cc2F)CC1)c1ccc(C(=O)Nc2ccccc2N)cc1 | > 100 µM | > 26.8 µM |
| Cc1cccc2c(=O)cc(-c3ccccc3)[nH]c12 | > 100 µM |  |
| COC(CN1C(=O)c2cccc3cccc(c23)C1=O)OC | > 100 µM |  |
| O=C(Nc1ccccc1)NS(=O)(=O)c1ccc(-n2nc3c(c2-c2cccs2)Cc2ccccc2-3)cc1 | > 100 µM | 50.2 µM |
| CCCCOC(=O)C1OC(O[C@H]2CCC3(C)C(CCC4(C)C3CC=C3C5CC(C)(C)CCC5(C(=O)O)CC[C@]34C)C2(C)C)C(OC2OC(CO)C(O)C(O)C2O)C(OC2OC(CO)C(O)C(O)C2O)C1O (some centres not stated) | 52.2 µM | 26.7 µM |
| Cc1nc2ccccc2c(=O)n1-c1ccccc1I | > 100 µM |  |
| Cc1ccc2c(=O)cc(-c3ccc(F)cc3)[nH]c2n1 | > 100 µM |  |
| CC(=O)NNc1nc(C)c(C(=O)NNC(=O)C(=O)Nc2ccc(Cl)cc2)s1 | > 100 µM |  |
| CC1(C)CCc2c(c3c(c4c(=O)c(O)c(-c5ccc(O)cc5)oc24)OC(C)(C)CC3)O1 | > 100 µM | > 100 µM |

| SMILES | TGI | GI50 |
| --- | --- | --- |
| CN/N=C(/Cc1occc(=O)c1O)C(=O)Nc1ccccc1C | > 100 µM |  |
| Cc1cc(I)cc(CN(C)CCCCN2CCCCC2)c1O | 15.8 µM | 4.21 µM |
| O=C(N/C(=C\c1ccc(/C=C(\NC(=O)c2ccccc2)c2nc3cc([N+](=O)[O-])ccc3[nH]2)cc1)c1nc2cc([N+](=O)[O-])ccc2[nH]1)c1ccccc1 | 69.8 µM |  |
| COc1ccc(C(=O)Cn2c(C(=O)c3ccccc3)nc(-c3ccc(OC)cc3)c2-c2ccc(OC)cc2)cc1 | > 100 µM | > 100 µM |
| O=C1c2ccccc2C2C1N2C(=O)C(F)(F)F (configuration not stated) | > 100 µM |  |
| CC1=C(C(=O)NCc2ccccc2)C(/C=C/c2ccccc2)C(C(=O)NCc2ccccc2)=C(C)N1 | > 100 µM |  |
| N#CCCN(CCC#N)c1ccc(/C=C2\N=C(c3cc([N+](=O)[O-])ccc3Cl)OC2=O)cc1 | > 100 µM |  |
| COc1cc(-c2nn(-c3ccc(NC(=O)c4ccc(Cl)c(C(F)(F)F)c4)cc3)cc2-c2ccncc2)ccc1Cl | > 61.9 µM | 2.62 µM |
| CN(C)CC[N+]1=Nc2cccc3cccc(c23)N1 | > 100 µM |  |
| COc1ccc2c(C3=C(c4cn(C)c5ccccc45)C(=O)NC3=O)cn(C)c2c1 | > 25 µM | 0.166 µM |
| Cc1cc(C)nc(NS(=O)(=O)c2ccc(NC(=O)c3ccc(Cl)c4c(Nc5ccc(S(=O)(=O)Nc6nc(C)cc(C)n6)cc5)c5ccccc5nc34)cc2)n1 | > 100 µM |  |
| N#CC(c1ccc(Cl)cc1)c1cccc(C(C#N)c2ccc(Cl)cc2)n1 (configuration not stated) | > 100 µM |  |
| CCCCCN(CCCCC)CCCNc1c2c(nc3ccc(Cl)cc13)CCCC2 | 13.8 µM | 3.74 µM |
| O=C1/C(=C/c2ccccc2)CN(C(=O)C(Cl)(Cl)Cl)C/C1=C\c1ccccc1 | 3.33 µM |  |
| Cn1c2ccccc2c2c(Nc3ccccc3)c3ccccc3nc21 | 49.6 µM | 17 µM |
| Cc1ccc(NC2=C(Cl)C(=O)N(Cc3ccccc3)C2=O)cc1O | > 100 µM | 52.8 µM |

Each compound was assayed on MOLT-4 leukemia (assay: growth of human tumour cells (NCI), 48 h).

| SMILES | GI50 | TGI |
| --- | --- | --- |
| COc1ccc(-c2nc3sccn3c2/C(N)=N/C(=N)N)cc1OC | 27.6 µM | > 100 µM |
| CCCCCCCCCCCOc1ccc(C(=O)C(=O)c2ccc(OCCCCCCCCCCC)c(OCCCCCCCCCCC)c2)cc1OCCCCCCCCCCC |  | > 100 µM |
| COc1cc(CNc2cnc3cc(N)cc(N)c3n2)cc(OC)c1 | 36.9 µM | > 100 µM |
| O=C(O)CCc1coc2ccc(O)cc12 |  | > 100 µM |
| Clc1cc2nsnc2c(Cl)n1 |  | 43.6 µM |
| N#CC1C(C#N)C2(c3ccccc3)C(c3ccccc3)=NN(c3ccccc3)CC12 (configuration not stated) |  | > 100 µM |
| COc1cc(Cc2cnc(/N=C3\C(=O)N(CN4CCN(c5c(F)cc6c(=O)c(C(=O)O)cn(C7CC7)c6c5OC)CC4C)c4ccc(F)cc43)nc2N)cc(OC)c1OC (configuration not stated) | 1.16 µM | 6.97 µM |
| Cc1cccc2c(=O)cc(-c3ccccc3)[nH]c12 |  | > 100 µM |
| COC(CN1C(=O)c2cccc3cccc(c23)C1=O)OC |  | > 100 µM |
| O=C(Nc1ccccc1)NS(=O)(=O)c1ccc(-n2nc3c(c2-c2cccs2)Cc2ccccc2-3)cc1 | 15.5 µM | > 100 µM |
| CCCCOC(=O)C1OC(O[C@H]2CCC3(C)C(CCC4(C)C3CC=C3C5CC(C)(C)CCC5(C(=O)O)CC[C@]34C)C2(C)C)C(OC2OC(CO)C(O)C(O)C2O)C(OC2OC(CO)C(O)C(O)C2O)C1O (some centres not stated) | 7.77 µM | 36.4 µM |
| Cc1nc2ccccc2c(=O)n1-c1ccccc1I |  | > 100 µM |
| Cc1ccc2c(=O)cc(-c3ccc(F)cc3)[nH]c2n1 |  | > 100 µM |
| CC(=O)NNc1nc(C)c(C(=O)NNC(=O)C(=O)Nc2ccc(Cl)cc2)s1 |  | > 100 µM |
| CC1(C)CCc2c(c3c(c4c(=O)c(O)c(-c5ccc(O)cc5)oc24)OC(C)(C)CC3)O1 | 37.2 µM | > 100 µM |
| CN/N=C(/Cc1occc(=O)c1O)C(=O)Nc1ccccc1C |  | > 100 µM |

| SMILES | GI50 | TGI |
| --- | --- | --- |
| Cc1cc(I)cc(CN(C)CCCCN2CCCCC2)c1O | 7.08 µM | 21.8 µM |
| O=C(N/C(=C\c1ccc(/C=C(\NC(=O)c2ccccc2)c2nc3cc([N+](=O)[O-])ccc3[nH]2)cc1)c1nc2cc([N+](=O)[O-])ccc2[nH]1)c1ccccc1 |  | > 100 µM |
| COc1ccc(C(=O)Cn2c(C(=O)c3ccccc3)nc(-c3ccc(OC)cc3)c2-c2ccc(OC)cc2)cc1 | > 100 µM | > 100 µM |
| O=C1c2ccccc2C2C1N2C(=O)C(F)(F)F (configuration not stated) |  | > 100 µM |
| CC1=C(C(=O)NCc2ccccc2)C(/C=C/c2ccccc2)C(C(=O)NCc2ccccc2)=C(C)N1 |  | > 100 µM |
| N#CCCN(CCC#N)c1ccc(/C=C2\N=C(c3cc([N+](=O)[O-])ccc3Cl)OC2=O)cc1 |  | 57.7 µM |
| CC1=C(C(=O)Nc2ccc(Cl)c(Cl)c2)C(c2cccc(Oc3ccccc3)c2)NC(=S)N1 (configuration not stated) | > 50 µM | > 50 µM |
| COc1cc(-c2nn(-c3ccc(NC(=O)c4ccc(Cl)c(C(F)(F)F)c4)cc3)cc2-c2ccncc2)ccc1Cl | 2.63 µM | 8.06 µM |
| CN(C)CC[N+]1=Nc2cccc3cccc(c23)N1 |  | > 73.2 µM |
| COc1ccc2c(C3=C(c4cn(C)c5ccccc45)C(=O)NC3=O)cn(C)c2c1 | 0.24 µM | > 24 µM |
| Cc1cc(C)nc(NS(=O)(=O)c2ccc(NC(=O)c3ccc(Cl)c4c(Nc5ccc(S(=O)(=O)Nc6nc(C)cc(C)n6)cc5)c5ccccc5nc34)cc2)n1 |  | > 100 µM |
| N#CC(c1ccc(Cl)cc1)c1cccc(C(C#N)c2ccc(Cl)cc2)n1 (configuration not stated) |  | > 100 µM |
| O=C1/C(=C/c2ccccc2)CN(C(=O)C(Cl)(Cl)Cl)C/C1=C\c1ccccc1 |  | 5.77 µM |
| Cn1c2ccccc2c2c(Nc3ccccc3)c3ccccc3nc21 | 7.89 µM | > 100 µM |
| Cc1ccc(NC2=C(Cl)C(=O)N(Cc3ccccc3)C2=O)cc1O | 24.3 µM | > 100 µM |
